This is an account of results in ChEMBL document CHEMBL1159081, “Anti-influenza diarylheptanoids from the bark of Alnus japonica” (Bioorg Med Chem Lett, 2010).

The CC50 is the concentration giving 50% cytotoxicity. For orientation: EC50 means the concentration giving half of the maximal effect. Higher therefore signals a need for much substance.

Series [1] is described as follows: Selectivity index, ratio of CC50 for CEF cells to EC50 for Influenza A virus (A/Korea/KBNP-0028/2000(H9N2)). The note with it: chicken. The series is classed as toxicity, cell-based.
A short description of series [2]: Cytotoxicity against CEF cells by MTT assay. To be noted: chicken. The format is cell-based, Gallus gallus. On the technique in general: Tetrazolium dyes change colour on reduction, which living cells bring about.
Another series concerns Influenza A virus. Put plainly: Antiviral activity against Influenza A virus (A/Korea/KBNP-0028/2000(H9N2)) infected in chicken egg after 5 days by hemagglutinination assay. The format is functional, organism-based. The note with it: 120 h.

As to `CC(=O)N[C@H]1[C@H]([C@H](O)[C@H](O)CO)OC(C(=O)O)=C[C@@H]1N=C(N)N` [ZANAMIVIR], the selectivity ratio in series [1] was over 44. The compound also registered a CC50 in series [2] of over 753 µM.

In the series on Influenza A virus, `O=C(/C=C/CCc1ccc(O)c(O)c1)CCc1ccc(O)c(O)c1` [DEHYDROHIRSUTANONOL] yielded an EC50 of over 350 µM. In series [2], this compound showed a CC50 of over 500 µM.

Take `O=C(CCc1ccc(O)c(O)c1)C[C@H](CCc1cccc(O)c1)O[C@@H]1OC[C@@H](O)[C@H](O)[C@H]1O` [ALNUSIDE A]: the EC50 in the series with Influenza A virus is over 350 µM. Besides, the CC50 in series [2] is over 500 µM.

On to `O=C(CCc1ccc(O)cc1)C[C@H](CCc1cccc(O)c1)O[C@@H]1OC[C@@H](O)[C@H](O)[C@H]1O`, for which, in the series on Influenza A virus, the response was half-maximal at 56.1 µM (EC50). The selectivity ratio in series [1] is over 10. In series [2], this compound showed a CC50 of over 560 µM.

In the series on Influenza A virus, `O=C(CCc1ccc(O)c(O)c1)C[C@H](CCc1ccc(O)c(O)c1)O[C@@H]1OC[C@@H](O)[C@H](O)[C@H]1OC(=O)/C=C/c1ccc(O)cc1` [OREGONOYL A] gave an EC50 of over 350 µM. The compound further yielded a CC50 in series [2] of over 500 µM.

For the compound `O=C(CCc1ccc(O)c(O)c1)C[C@@H](O)CCc1ccc(O)c(O)c1` [HIRSUTANONOL], the EC50 in the series with Influenza A virus was over 350 µM. The CC50 in series [2] is over 500 µM.

In the series with Influenza A virus, `COc1cc(/C=C/C(=O)O[C@H]2[C@H](O[C@@H](CCc3ccc(O)c(O)c3)CC(=O)CCc3ccc(O)c(O)c3)OC[C@@H](O)[C@@H]2O)ccc1O` [OREGONOYL B] gave an EC50 of over 350 µM. The same compound displayed a CC50 in series [2] of over 500 µM.
